Several values for one entry are separate records, joined by “and”; a condition that tells them apart may be missing. Identical values can stand only once. Inconclusive results and toxic doses are left out. Cut-off read from the data, not from the text of the source: active = T/C of 150% or more; inactive = T/C below 125%.
System: L1210 leukemia ip in BDF1 mice, survival T/C
Experiment: NCI In Vivo Anticancer Drug Screen. Data for tumor model L1210 Leukemia (intraperitoneal) in B6D2F1 (BDF1) mice
Conditions: endpoint: mean survival time, higher = longer survival
Method in brief: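 Survival endpoint. Drug-treated group vs vehicle group, expressed as T divided by C. Tumor passaged by transplantation.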

[1] = dose: 100.0 mg/kg/injection, schedule: Q01DX001 (ip), vehicle: saline with Tween-80
[2] = dose: 100.0 mg/kg/injection, schedule: Q01DX009 (ip), vehicle: saline with Tween-80
[3] = dose: 100.0 mg/kg/injection, schedule: Q04DX003 (ip), vehicle: saline with Tween-80
[4] = dose: 200.0 mg/kg/injection, schedule: Q01DX001 (ip), vehicle: saline with Tween-80
[5] = dose: 200.0 mg/kg/injection, schedule: Q01DX009 (ip), vehicle: saline with Tween-80
[6] = dose: 200.0 mg/kg/injection, schedule: Q04DX003 (ip), vehicle: saline with Tween-80
[7] = dose: 400.0 mg/kg/injection, schedule: Q01DX009 (ip), vehicle: saline with Tween-80
[8] = dose: 400.0 mg/kg/injection, schedule: Q04DX003 (ip), vehicle: saline with Tween-80
[9] = dose: 100.0 mg/kg/injection, schedule: Q01DX001 (ip), vehicle: carboxymethylcellulose (CMC)
[10] = dose: 200.0 mg/kg/injection, schedule: Q01DX001 (ip), vehicle: carboxymethylcellulose (CMC)
[11] = dose: 400.0 mg/kg/injection, schedule: Q01DX001 (ip), vehicle: carboxymethylcellulose (CMC)
[12] = dose: 100.0 mg/kg/injection, schedule: Q01DX001 (ip), vehicle: saline
[13] = dose: 200.0 mg/kg/injection, schedule: Q01DX001 (ip), vehicle: saline
[14] = dose: 100.0 mg/kg/injection, schedule: Q01DX009 (ip), vehicle: Klucel (hydroxypropylcellulose) (HPC)
[15] = dose: 200.0 mg/kg/injection, schedule: Q01DX009 (ip), vehicle: Klucel (hydroxypropylcellulose) (HPC)

Measured: T/C

Cc1ccc(/C(=N\N=C(N)N)C2CC2)cc1
inactive: dose: 15.0 mg/kg/injection, schedule: Q01DX Z (ip), vehicle: methylcellulose (MC) 102 % of control | dose: 30.0 mg/kg/injection, schedule: Q01DX Z (ip), vehicle: methylcellulose (MC) 113 % of control | dose: 60.0 mg/kg/injection, schedule: Q01DX Z (ip), vehicle: methylcellulose (MC) 112 % of control | dose: 120.0 mg/kg/injection, schedule: Q01DX Z (ip), vehicle: methylcellulose (MC) 97 % of control | dose: 120.0 mg/kg/injection, schedule: Q01DX Z (oral), vehicle: methylcellulose (MC) 96 % of control | dose: 240.0 mg/kg/injection, schedule: Q01DX Z (ip), vehicle: methylcellulose (MC) 99 % of control | dose: 240.0 mg/kg/injection, schedule: Q01DX Z (oral), vehicle: methylcellulose (MC) 98 % of control | dose: 480.0 mg/kg/injection, schedule: Q01DX Z (oral), vehicle: methylcellulose (MC) 90 % of control

CCCCCCCCCCCCSC(=O)NCCC
inactive: dose: 100.0 mg/kg/injection, schedule: Q01DX009 (ip), vehicle: other 95 % of control | dose: 200.0 mg/kg/injection, schedule: Q01DX009 (ip), vehicle: other 90 % of control | dose: 400.0 mg/kg/injection, schedule: Q01DX009 (ip), vehicle: other 92 % of control

COC(=O)CN(C(=S)c1ccccc1)c1ccccc1
inactive: dose: 100.0 mg/kg/injection, schedule: Q04DX003 (ip), vehicle: Klucel (hydroxypropylcellulose) (HPC) 104 % of control | dose: 200.0 mg/kg/injection, schedule: Q04DX003 (ip), vehicle: Klucel (hydroxypropylcellulose) (HPC) 96 % of control | dose: 400.0 mg/kg/injection, schedule: Q04DX003 (ip), vehicle: Klucel (hydroxypropylcellulose) (HPC) 94 % of control

Cc1cccc(NC(=O)OC/C=C/c2ccccc2)c1
inactive: [1] 114 % of control | [2] 102 % of control and 103 % of control | dose: 100.0 mg/kg/injection, schedule: Q04DX002 (ip), vehicle: saline with Tween-80 105 % of control and 108 % of control | [3] 86 % of control | [4] 103 % of control | [5] 95 % of control and 96 % of control | dose: 200.0 mg/kg/injection, schedule: Q04DX002 (ip), vehicle: saline with Tween-80 95 % of control and 105 % of control | [6] 90 % of control | dose: 400.0 mg/kg/injection, schedule: Q01DX001 (ip), vehicle: saline with Tween-80 97 % of control | [7] 90 % of control | dose: 400.0 mg/kg/injection, schedule: Q04DX002 (ip), vehicle: saline with Tween-80 95 % of control and 105 % of control | [8] 86 % of control

CCCC(C)(COC(N)=O)COC(N)=O
inactive: [2] 93 % of control | [5] 90 % of control | [7] 109 % of control

O=S(=O)(C1=C(c2ccccc2)CCCC1)c1ccccc1
inactive: dose: 100.0 mg/kg/injection, schedule: Q01DX009 (ip), vehicle: acetone 104 % of control

COc1ccc(-n2cnc3c(=O)[nH]c(N)nc32)cc1NC(=O)Nc1cccc(S(=O)(=O)F)c1
inactive: dose: 50.0 mg/kg/injection, schedule: Q01DX001 (ip), vehicle: saline with Tween-80 95 % of control | [1] 92 % of control | [4] 100 % of control

CC1(C)CCO/C(=C\C(=O)N2Cc3cc4ccccc4nc3C2)N1
inactive: dose: 100.0 mg/kg/injection, schedule: Q01DX001 (ip), vehicle: Klucel (hydroxypropylcellulose) (HPC) 88 % of control | dose: 200.0 mg/kg/injection, schedule: Q01DX001 (ip), vehicle: Klucel (hydroxypropylcellulose) (HPC) 86 % of control | dose: 400.0 mg/kg/injection, schedule: Q01DX001 (ip), vehicle: Klucel (hydroxypropylcellulose) (HPC) 90 % of control

O=C(NO)C(=O)NCc1ccccc1
inactive: [9] 90 % of control | [10] 96 % of control | [11] 96 % of control

CCOc1ccc(/C=N\NC(=O)CCCC(=O)N/N=C/c2ccc(OCC)c(OCC)c2)cc1OCC
inactive: dose: 50.0 mg/kg/injection, schedule: Q01DX001 (ip), vehicle: saline 103 % of control | [12] 95 % of control | [13] 87 % of control

O/N=C1\C(Cl)C2CC1C1C=CCC12 (stereo not drawn)
inactive: dose: 25.0 mg/kg/injection, schedule: Q04DX003 (ip), vehicle: Klucel (hydroxypropylcellulose) (HPC) 91 % of control

COc1ccc(/C=N/NC(=O)CNC(=O)NCc2ccccc2)cc1
inactive: [14] 90 % of control | [15] 93 % of control

COc1cc(Cl)ccc1NC(=O)Oc1cccc2ccccc12
inactive: [14] 89 % of control | [15] 101 % of control | dose: 400.0 mg/kg/injection, schedule: Q01DX009 (ip), vehicle: Klucel (hydroxypropylcellulose) (HPC) 95 % of control

O=[N+]([O-])c1ccc(Oc2ccccc2)c(S(=O)(=O)O)c1
inactive: [3] 103 % of control | [6] 94 % of control | [8] 97 % of control

COc1cc(OC)c(NC(=S)Nc2ccc([N+](=O)[O-])cc2)cc1Cl
inactive: dose: 50.0 mg/kg/injection, schedule: Q01DX009 (ip), vehicle: saline with Tween-80 92 % of control | [2] 88 % of control | [5] 90 % of control

C1=Cc2ccccc2Sc2ccccc21
inactive: dose: 50.0 mg/kg/injection, schedule: Q01DX001 (ip), vehicle: carboxymethylcellulose (CMC) 98 % of control | [10] 98 % of control

Cc1ncc(CO)c(C2NOCc3nscc32)c1O (stereo not drawn)
inactive: dose: 3.12 mg/kg/injection, schedule: Q01DX009 (ip), vehicle: Klucel (hydroxypropylcellulose) (HPC) 94 % of control | dose: 3.12 mg/kg/injection, schedule: Q01DX009 (ip), vehicle: other 98 % of control | dose: 6.25 mg/kg/injection, schedule: Q01DX009 (ip), vehicle: other 100 % of control | dose: 12.5 mg/kg/injection, schedule: Q01DX009 (ip), vehicle: Klucel (hydroxypropylcellulose) (HPC) 89 % of control | dose: 12.5 mg/kg/injection, schedule: Q01DX009 (ip), vehicle: other 107 % of control | dose: 12.5 mg/kg/injection, schedule: Q04DX003 (ip), vehicle: Klucel (hydroxypropylcellulose) (HPC) 92 % of control

COc1ccc2c(c1)CC1(CC2)NCC(=O)NC1=O (stereo not drawn)
inactive: [9] 97 % of control | [10] 97 % of control | [11] 115 % of control

CC(C)(C)OC(=O)C(=O)C(OC(C)(C)C)C(=O)OC(C)(C)C (stereo not drawn)
inactive: [12] 98 % of control | [13] 102 % of control

NC(CSC(c1ccccc1)(c1ccccc1)c1ccc(O)cc1)C(=O)O (stereo not drawn)
inactive: dose: 6.25 mg/kg/injection, schedule: Q01DX009 (ip), vehicle: saline 111 % of control | dose: 12.5 mg/kg/injection, schedule: Q01DX009 (ip), vehicle: saline 105 % of control | dose: 25.0 mg/kg/injection, schedule: Q01DX009 (ip), vehicle: saline 116 % of control | dose: 75.0 mg/kg/injection, schedule: Q01DX001 (ip), vehicle: other 104 % of control | dose: 150.0 mg/kg/injection, schedule: Q01DX001 (ip), vehicle: other 109 % of control

CCCCCCCCCCCCCCCCCCNC(=O)Nc1nccs1
inactive: [14] 96 % of control | dose: 150.0 mg/kg/injection, schedule: Q01DX009 (ip), vehicle: Klucel (hydroxypropylcellulose) (HPC) 86 % of control | dose: 200.0 mg/kg/injection, schedule: Q04DX002 (ip), vehicle: Klucel (hydroxypropylcellulose) (HPC) 94 % of control | dose: 225.0 mg/kg/injection, schedule: Q01DX009 (ip), vehicle: Klucel (hydroxypropylcellulose) (HPC) 91 % of control | dose: 335.0 mg/kg/injection, schedule: Q01DX009 (ip), vehicle: Klucel (hydroxypropylcellulose) (HPC) 96 % of control | dose: 400.0 mg/kg/injection, schedule: Q04DX002 (ip), vehicle: Klucel (hydroxypropylcellulose) (HPC) 87 % of control
